{"source": "patent US9555038B2", "about": "“Heterocycle-substituted tetracyclic compounds and methods of use thereof for the treatment of viral diseases” (Merck Sharp & Dohme Corp., priority 2013, dated 2017)", "key": {"[1]": {"system": "HCV replicon 1A", "assay": "Cell-based HCV Replicon Assay A, replicon 1A", "procedure,_shortened": "(§1)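 HCV replicon RNA levels are measured by multiplexed real-time RT-PCR, with cyclophilin as internal control, after 3 days of compound exposure. Compounds are tested in 10 serial dilutions starting between 333.3 nM and 1.667 nM, with 5% FBS in the medium.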"}, "[2]": {"system": "HCV replicon 1AY93H", "assay": "Cell-based HCV Replicon Assay A, replicon 1AY93H", "details": "for pIC50: read-out: 1A Y93H IC50, replicon 1AY93H; for IC50: Hepatitis C virus, read-out: 1A Y93H IC50 (nM), replicon 1AY93H", "procedure,_shortened": "as §1"}, "[3]": {"system": "HCV replicon 2B", "assay": "Cell-based HCV Replicon Assay A, replicon 2B", "details": "for pIC50: read-out: 2B IC50, replicon 2B; for IC50: Hepatitis C virus, read-out: 2B IC50 (nM), replicon 2B", "procedure,_shortened": "as §1"}, "[4]": {"system": "HCV replicon 1AQ30D", "assay": "Cell-based HCV Replicon Assay B, replicon 1AQ30D", "details": "for IC50: Hepatitis C virus, read-out: 1A Q30D IC50 (nM), replicon 1AQ30D; for pIC50: read-out: 1A Q30D IC50, replicon 1AQ30D", "procedure,_shortened": "(§2)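 Replicon cells seeded in 5% FBS; compounds added 24 h later, then 3 days' incubation. Replicon RNA quantified by real-time RT-PCR with genotype-specific primers/probes (NS5B amplicon for 1b). EC50 = concentration raising CT by 1 over projected baseline.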"}, "[5]": {"system": "HCV replicon 1B", "assay": "Cell-based HCV Replicon Assay B, replicon 1B", "procedure,_shortened": "as §2"}}, "note": "pIC50: −log10 of the molar value. Where two headings read alike, the source gives them in different places."}
{"smiles": "COC(=O)NC(C(=O)N1CCC[C@H]1c1ncc(-c2ccc3c(c2)cc2n3C(c3cnc(C(C)C)s3)Oc3cc(-c4cnc([C@@H]5CCCN5C(=O)[C@@H](NC(=O)OC)C(C)C)[nH]4)cc(F)c3-2)[nH]1)C1C[C@@H](C)O[C@@H](C)C1", "note": "(single isomer, unassigned) [Compound 57]", "values": [{"measurement": "pIC50", "setting": "[1]", "result": 11.80}, {"measurement": "pIC50", "setting": "[2]", "result": 11.70}, {"measurement": "pIC50", "setting": "[3]", "result": 11.30}, {"measurement": "IC50", "setting": "[4]", "result": 0.028, "unit": "nM"}, {"measurement": "pIC50", "setting": "[5]; Hepatitis C virus", "result": 12.00}]}
{"smiles": "COC(=O)NC(C(=O)N1CCC[C@H]1c1ncc(-c2ccc3c(c2)c(F)c2n3C(c3cnc(C4CC4)s3)Oc3cc(-c4cnc([C@@H]5CCCN5C(=O)[C@@H](NC(=O)OC)C(C)C)[nH]4)cc(F)c3-2)[nH]1)C1CCOC(C)(C)C1", "note": "(single isomer, unassigned) [Compound 72]", "values": [{"measurement": "pIC50", "setting": "[1]; Hepatitis C virus", "result": 11.54}, {"measurement": "IC50", "setting": "[2]", "result": 0.006, "unit": "nM"}, {"measurement": "IC50", "setting": "[3]", "result": 0.005, "unit": "nM"}, {"measurement": "IC50", "setting": "[4]", "result": 0.099, "unit": "nM"}, {"measurement": "pIC50", "setting": "[5]; Hepatitis C virus", "result": 11.62}]}
{"smiles": "COC(=O)NC(C(=O)N1CCC[C@H]1c1ncc(-c2ccc3c(c2)cc2n3C(c3cnc(CC(C)(C)C)s3)Oc3cc(-c4cnc([C@@H]5CCCN5C(=O)[C@@H](NC(=O)OC)C(C)C)[nH]4)cc(F)c3-2)[nH]1)C1CCOC(C)(C)C1", "note": "(stereo partly shown) [Compound 443]", "values": [{"measurement": "pIC50", "setting": "[1]; Hepatitis C virus", "result": 11.51}, {"measurement": "IC50", "setting": "[2]", "result": 0.008, "unit": "nM"}, {"measurement": "IC50", "setting": "[3]", "result": 0.006, "unit": "nM"}, {"measurement": "IC50", "setting": "[4]", "result": 0.028, "unit": "nM"}, {"measurement": "pIC50", "setting": "[5]; Hepatitis C virus", "result": 11.51}]}
{"smiles": "CCCc1ncc(C2Oc3cc(-c4cnc([C@@H]5CCCN5C(=O)[C@@H](NC(=O)OC)C(C)C)[nH]4)cc(F)c3-c3cc4cc(-c5cnc([C@@H]6CCCN6C(=O)C(NC(=O)OC)C6CCOC(C)(C)C6)[nH]5)ccc4n32)s1", "note": "(single isomer, unassigned) [Compound 59]", "values": [{"measurement": "pIC50", "setting": "[1]", "result": 11.59}, {"measurement": "pIC50", "setting": "[2]", "result": 9.88}, {"measurement": "pIC50", "setting": "[3]", "result": 9.88}, {"measurement": "pIC50", "setting": "[4]", "result": 9.12}, {"measurement": "pIC50", "setting": "[5]", "result": 11.52}]}
{"smiles": "COC(=O)N[C@H](C(=O)N1CCC[C@H]1c1ncc(-c2cc(F)c3c(c2)OC(c2cnc(C4CCOCC4)s2)n2c-3cc3cc(-c4cnc([C@@H]5CCCN5C(=O)[C@@H](NC(=O)OC)C(C)C)[nH]4)ccc32)[nH]1)C(C)C", "note": "(single isomer, unassigned) [Compound 531]", "values": [{"measurement": "pIC50", "setting": "[1]; Hepatitis C virus", "result": 11.60}, {"measurement": "pIC50", "setting": "[2]", "result": 10.66}, {"measurement": "pIC50", "setting": "[3]", "result": 10.25}, {"measurement": "IC50", "setting": "[4]", "result": 0.328, "unit": "nM"}, {"measurement": "pIC50", "setting": "[5]; Hepatitis C virus", "result": 11.42}]}
{"smiles": "COC(=O)N[C@H](C(=O)N1CCC[C@H]1c1ncc(-c2cc(F)c3c(c2)OC(c2cnc(C4CC4)s2)n2c-3c(F)c3cc(-c4cnc([C@@H]5CCCN5C(=O)[C@@H](NC(=O)OC)C5CCOCC5)[nH]4)ccc32)[nH]1)C(C)C", "note": "(single isomer, unassigned) [Compound 41]", "values": [{"measurement": "pIC50", "setting": "[1]; Hepatitis C virus", "result": 11.77}, {"measurement": "pIC50", "setting": "[2]", "result": 9.90}, {"measurement": "pIC50", "setting": "[3]", "result": 10.40}, {"measurement": "pIC50", "setting": "[4]", "result": 8.99}, {"measurement": "pIC50", "setting": "[5]; Hepatitis C virus", "result": 11.70}]}
{"smiles": "COC(=O)NC(C(=O)N1[C@@H]2C[C@@H]2C[C@H]1c1ncc(-c2ccc3c(c2)cc2n3C(c3cnc(CC(C)C)s3)Oc3cc(-c4cnc([C@@H]5CCCN5C(=O)[C@@H](NC(=O)OC)C(C)C)[nH]4)cc(F)c3-2)[nH]1)C1C[C@@H](C)O[C@@H](C)C1", "note": "(single isomer, unassigned) [Compound 441]", "values": [{"measurement": "pIC50", "setting": "[1]", "result": 11.60}, {"measurement": "pIC50", "setting": "[2]", "result": 11.52}, {"measurement": "pIC50", "setting": "[3]", "result": 11.22}, {"measurement": "pIC50", "setting": "[4]", "result": 10.96}, {"measurement": "pIC50", "setting": "[5]", "result": 11.47}]}
{"smiles": "COC(=O)N[C@H](C(=O)N1CCC[C@H]1c1ncc(-c2cc(F)c3c(c2)OC(c2cncs2)n2c-3cc3cc(-c4cnc([C@@H]5CCCN5C(=O)[C@@H](NC(=O)OC)C(C)C)[nH]4)ccc32)[nH]1)C(C)C", "note": "(single isomer, unassigned) [Compound 2]", "values": [{"measurement": "pIC50", "setting": "[1]; Hepatitis C virus", "result": 11.46}, {"measurement": "IC50", "setting": "[2]", "result": 6.95, "unit": "nM"}, {"measurement": "pIC50", "setting": "[3]", "result": 8.64}, {"measurement": "IC50", "setting": "[4]", "result": 38.3, "unit": "nM"}, {"measurement": "pIC50", "setting": "[5]; Hepatitis C virus", "result": 10.52}]}
{"smiles": "CCCOCc1ncc(C2Oc3cc(-c4cnc([C@@H]5CCCN5C(=O)[C@@H](NC(=O)OC)C(C)C)[nH]4)cc(F)c3-c3cc4cc(-c5cnc([C@@H]6CCCN6C(=O)[C@@H](NC(=O)OC)C(C)C)[nH]5)ccc4n32)s1", "note": "(single isomer, unassigned) [Compound 500]", "values": [{"measurement": "pIC50", "setting": "[1]", "result": 10.65}, {"measurement": "pIC50", "setting": "[2]", "result": 8.11}, {"measurement": "pIC50", "setting": "[3]", "result": 8.78}, {"measurement": "pIC50", "setting": "[4]", "result": 7.78}, {"measurement": "pIC50", "setting": "[5]", "result": 10.74}]}
{"smiles": "COC(=O)N[C@H](C(=O)N1CCC[C@H]1c1ncc(-c2cc(F)c3c(c2)OC(c2nc4c(s2)CCCC4)n2c-3cc3cc(-c4cnc([C@@H]5CCCN5C(=O)[C@@H](NC(=O)OC)C(C)C)[nH]4)ccc32)[nH]1)C(C)C", "note": "(single isomer, unassigned) [Compound 87]", "values": [{"measurement": "pIC50", "setting": "[1]; Hepatitis C virus", "result": 11.60}, {"measurement": "IC50", "setting": "[2]", "result": 0.0714, "unit": "nM"}, {"measurement": "IC50", "setting": "[3]", "result": 0.003, "unit": "nM"}, {"measurement": "pIC50", "setting": "[4]", "result": 10.17}, {"measurement": "pIC50", "setting": "[5]; Hepatitis C virus", "result": 9.06}]}
{"smiles": "COC(=O)N[C@H](C(=O)N1CCC[C@H]1c1ncc(-c2cc(F)c3c(c2)OC(c2cnc(C(C)(C)C)s2)n2c-3cc3cc(-c4cnc([C@@H]5CCCN5C(=O)[C@@H](NC(=O)OC)C(C)C)[nH]4)ccc32)[nH]1)C(C)C", "note": "(single isomer, unassigned) [Compound 302]", "values": [{"measurement": "pIC50", "setting": "[1]; Hepatitis C virus", "result": 11.54}, {"measurement": "pIC50", "setting": "[2]", "result": 11.15}, {"measurement": "pIC50", "setting": "[3]", "result": 10.11}, {"measurement": "IC50", "setting": "[4]", "result": 0.168, "unit": "nM"}, {"measurement": "pIC50", "setting": "[5]", "result": 12.00}]}
